The source of these data is patent US20230365582A1, “NOVEL COMPOUNDS HAVING INHIBITORY ACTIVITY ON PROSTAGLANDIN E2 RECEPTOR AND USES THEREOF” (KANAPH THERAPEUTICS INC., priority 2020, published 2023).

One test deals with T1, hEP2 (Homo sapiens, UniProt P43116).
T1 construct: expressed in transfected cells; host or cells: HEK293
Put plainly: hEP2 cAMP assay. The format is cell-based. The conditions noted are these: HEK293 cells overexpressing hEP2; PGE2 agonist 400 pM; graded per Table 21; read-out: IC50 (nM) EP2 cAMP. As to the method:
HEK293 cells overexpressing hEP2 were cultured in growth medium (GM: MEM (Gibco™, 11095080)/10% HI FBS (Gibco™, 10082147)/1% penicillin/streptomycin). Before the experiment, the growth medium was removed, and starvation medium (HBSS (Gibco™, 14025076)/10% GM) was added. Thereafter, the cells were incubated for 4 hours. The HEK293 cells harboring hEP2 were detached from the culture dish with a non-enzymatic cell dissociation buffer (Gibco™, 15040066). The cells were resuspended in assay buffer (AB: HBSS, 0.1% BSA stabilizer, 0.5 mM IBMX, 5 mM HEPES).
(§1) 1,000 cells in 5 μL of AB were seeded per well in a 384 well plate (Corning™, 3570), and stock solutions of test compounds were prepared at a concentration of 1 mM in DMSO and serially diluted in DMSO to the concentration required for the inhibition dose response curve (test concentration range of 10 μM-0.001 nM). PGE2 (Sigma, P0409, stock solution: 1 μM) was used as an agonist at a final concentration of 400 pM corresponding to EC50-80. 2.5 μL of the diluted compound and 2.5 μL of PGE2 (400 pM final concentration) were transferred to the assay plate, and then the plate was incubated at room temperature for 12 minutes.
(§2) 5 μL of each donor (Eu-cAMP tracer) and acceptor (ULight-anti-cAMP) was added, and the plate was incubated in the dark for 1 hour at room temperature, and then a Varioskan LUX multimode microplate reader was used to obtain the results (excitation: 334 nm, emission: 615 and 665 nm). The resulting FRET fluorescence value (665 nm/615 nm*10000) was converted and then calculated as a percentage of cAMP relative to the DMSO control value. IC50 values and curves were generated with GraphPad Prism software using log (inhibitor) versus response-variable slopes (4 parameters), and the median of multiple experiments was taken as the experiment result.
(In general: Cyclic AMP is a second messenger, typically raised through Gs and lowered through Gi signalling.)

A further test addresses T2, hEP4 (Homo sapiens, UniProt P35408).
T2 construct: expressed in transfected cells; host or cells: HEK293
Put plainly: hEP4 cAMP assay. In kind it is cell-based. The conditions noted are these: HEK293 cells overexpressing hEP4; PGE2 agonist 20 nM; graded per Table 21; read-out: IC50 (nM) EP4 cAMP. On the procedure:
HEK293 cells overexpressing hEP4 were cultured in growth medium (GM: MEM (Gibco™, 11095080)/10% HI FBS (Gibco™, 10082147)/1% penicillin/streptomycin). Before the experiment, the growth medium was removed, and starvation medium (HBSS (Gibco™ 14025076)/10% GM) was added. Thereafter, the cells were incubated for 4 hours. HEK293 cells harboring hEP4 were detached from the culture dish with a non-enzymatic cell dissociation buffer (Gibco™, 15040066). The cells were resuspended in assay buffer (AB: HBSS, 0.1% BSA stabilizer, 0.5 mM IBMX, 5 mM HEPES).
as §1, with “plate (Corning®,” for “plate (Corning™,”, “solution: 100” for “solution: 1”, “of 20 nM” for “of 400 pM”, “PGE2 (20 nM” for “PGE2 (400 pM”, “for 18.5” for “for 12”
as §2, with “compared” for “relative”, “slope” for “slopes”

T2 sequence (P35408 whole entry): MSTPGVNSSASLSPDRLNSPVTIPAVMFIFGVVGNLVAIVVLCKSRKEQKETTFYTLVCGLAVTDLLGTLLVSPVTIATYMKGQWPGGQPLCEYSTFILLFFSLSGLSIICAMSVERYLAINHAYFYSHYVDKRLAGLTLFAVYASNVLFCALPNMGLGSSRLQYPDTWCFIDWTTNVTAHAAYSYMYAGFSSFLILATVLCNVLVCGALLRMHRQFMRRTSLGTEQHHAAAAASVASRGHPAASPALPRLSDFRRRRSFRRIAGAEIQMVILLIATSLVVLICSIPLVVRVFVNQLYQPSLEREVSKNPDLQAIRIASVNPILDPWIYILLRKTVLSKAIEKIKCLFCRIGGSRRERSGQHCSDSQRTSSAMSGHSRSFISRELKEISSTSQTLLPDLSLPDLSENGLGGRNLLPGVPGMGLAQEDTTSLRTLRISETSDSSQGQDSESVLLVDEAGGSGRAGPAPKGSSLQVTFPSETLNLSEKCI
T1 sequence (P43116 whole entry): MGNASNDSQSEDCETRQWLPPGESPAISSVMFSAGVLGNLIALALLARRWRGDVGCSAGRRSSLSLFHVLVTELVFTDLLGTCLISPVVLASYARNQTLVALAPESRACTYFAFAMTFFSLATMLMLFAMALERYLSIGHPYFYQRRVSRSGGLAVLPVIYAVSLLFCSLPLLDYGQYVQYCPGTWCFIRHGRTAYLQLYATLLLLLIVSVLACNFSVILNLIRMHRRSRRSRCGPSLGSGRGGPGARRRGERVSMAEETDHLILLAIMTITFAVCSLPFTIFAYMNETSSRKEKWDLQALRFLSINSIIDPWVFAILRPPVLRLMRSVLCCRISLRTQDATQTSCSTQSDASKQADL

For the compound `Cc1sc(C)c(C(=O)NC2CC3(C2)CC(C(=O)O)C3)c1Cc1ccc(-c2ccc(F)c(C(=O)O)c2)cc1` (centres unmarked) [Example 37, 6-(4-((3′-carboxy-4′-fluoro-[1,1′-biphenyl]-4-yl)methyl)-2,5-dimethylthiophene-3-carboxamido)spiro[3.3]heptane-2-carboxylic acid], the IC50 at hEP2 is above 10000 nM; on hEP4, 5000 to 10000 nM.

For `Cc1ccccc1-c1ccc(Cc2c(C)sc(C)c2C(=O)NC2CC3(C2)CC(C(=O)O)C3)cc1` (centres unmarked) [Example 38, 6-(2,5-dimethyl-4-((2′-methyl-[1,1′-biphenyl]-4-yl)methyl)thiophene-3-carboxamido)spiro[3.3]heptane-2-carboxylic acid], the figures for the 50% inhibitory concentration (IC50) at hEP2 and on hEP4 were above 10000 nM and 500 to 5000 nM, respectively.

Turning to `Cc1sc(C)c(C(=O)NC2CC3(C2)CC(C(=O)O)C3)c1Cc1ccc(-c2cnn(C)c2)cc1` (centres unmarked) [Example 39, 6-(2,5-dimethyl-4-(4-(1-methyl-1H-pyrazol-4-yl)benzyl)thiophene-3-carboxamido)spiro[3.3]heptane-2-carboxylic acid], the figures for the IC50 at hEP2 and on hEP4 were above 10000 nM and 500 to 5000 nM, respectively.

Consider `COc1ccc(-c2ccc(Cc3c(C)sc(C)c3C(=O)NC3CC4(C3)CC(C(=O)O)C4)cc2)cc1F` (centres unmarked) [Example 40, 6-(4-((3′-fluoro-4′-methoxy-[1,1′-biphenyl]-4-yl)methyl)-2,5-dimethylthiophene-3-carboxamido)spiro[3.3]heptane-2-carboxylic acid], for which the IC50 on hEP2 was 5000 to 10000 nM; at hEP4, below 500 nM.

As to `COc1cc(C#N)cc(-c2ccc(Cc3c(C)sc(C)c3C(=O)NC3CC4(C3)CC(C(=O)O)C4)cc2)c1` (centres unmarked) [Example 41, 6-(4-((3′-cyano-5′-methoxy-[1,1′-biphenyl]-4-yl)methyl)-2,5-dimethylthiophene-3-carboxamido)spiro[3.3]heptane-2-carboxylic acid], the half-inhibitory concentration (IC50) at hEP2 is 500 to 5000 nM; on hEP4, below 500 nM.

Consider `Cc1sc(C)c(C(=O)NC2CC3(C2)CC(C(=O)O)C3)c1Cc1ccc(-c2ccc(OC(F)(F)F)cc2)cc1` (centres unmarked) [Example 42, 6-(2,5-dimethyl-4-((4′-(trifluoromethoxy)-[1,1′-biphenyl]-4-yl)methyl)thiophene-3-carboxamido)spiro[3.3]heptane-2-carboxylic acid], for which the IC50 at hEP2 is above 10000 nM; at hEP4, 500 to 5000 nM.

As to `Cc1sc(C)c(C(=O)NC2CC3(C2)CC(C(=O)O)C3)c1Cc1ccc(-c2cccc(F)c2)cc1` (centres unmarked) [Example 43, 6-(4-((3′-fluoro-[1,1′-biphenyl]-4-yl)methyl)-2,5-dimethylthiophene-3-carboxamido)spiro[3.3]heptane-2-carboxylic acid], the IC50 was 500 to 5000 nM at hEP2 and below 500 nM at hEP4.

As to `Cc1sc(C)c(C(=O)NC2CC3(C2)CC(C(=O)O)C3)c1Cc1ccc(-c2cccc(C(F)(F)F)c2)cc1` (centres unmarked) [Example 44, 6-(2,5-dimethyl-4-((3′-(trifluoromethyl)-[1,1′-biphenyl]-4-yl)methyl)thiophene-3-carboxamido)spiro[3.3]heptane-2-carboxylic acid], the IC50 is 500 to 5000 nM on hEP2 and below 500 nM at hEP4.

`CCOc1cc(F)cc(-c2ccc(Cc3c(C)sc(C)c3C(=O)NC3CC4(C3)CC(C(=O)O)C4)cc2)c1` (centres unmarked) [Example 45, 6-(4-((3′-ethoxy-5′-fluoro-[1,1′-biphenyl]-4-yl)methyl)-2,5-dimethylthiophene-3-carboxamido)spiro[3.3]heptane-2-carboxylic acid]: the values for the IC50 at hEP2 and on hEP4 were 500 to 5000 nM and below 500 nM, respectively.

For `Cc1sc(C)c(C(=O)NC2CC3(C2)CC(C(=O)O)C3)c1Cc1ccc(-c2cc(F)cc(OC(C)C)c2)cc1` (centres unmarked) [Example 46, 6-(4-((3′-fluoro-5′-isopropoxy-[1,1′-biphenyl]-4-yl)methyl)-2,5-dimethylthiophene-3-carboxamido)spiro[3.3]heptane-2-carboxylic acid], the 50% inhibitory concentration (IC50) on hEP2 and at hEP4 was 500 to 5000 nM each time.

As for `COc1ccc(F)c(-c2ccc(Cc3c(C)sc(C)c3C(=O)NC3CC4(C3)CC(C(=O)O)C4)cc2)c1` (centres unmarked) [Example 47, 6-(4-((2′-fluoro-5′-methoxy-[1,1′-biphenyl]-4-yl)methyl)-2,5-dimethylthiophene-3-carboxamido)spiro[3.3]heptane-2-carboxylic acid], the IC50 is above 10000 nM on hEP2 and 500 to 5000 nM at hEP4.

Turning to `COc1ccc(F)cc1-c1ccc(Cc2c(C)sc(C)c2C(=O)NC2CC3(C2)CC(C(=O)O)C3)cc1` (centres unmarked) [Example 48, 6-(4-((5′-fluoro-2′-methoxy-[1,1′-biphenyl]-4-yl)methyl)-2,5-dimethylthiophene-3-carboxamido)spiro[3.3]heptane-2-carboxylic acid], the results for the IC50 at hEP2 and on hEP4 were above 10000 nM and below 500 nM, respectively.

`Cc1sc(C)c(C(=O)NC2CC3(C2)CC(C(=O)O)C3)c1Cc1ccc(-c2ccccc2F)cc1` (centres unmarked) [Example 49, 6-(4-((2′-fluoro-[1,1′-biphenyl]-4-yl)methyl)-2,5-dimethylthiophene-3-carboxamido)spiro[3.3]heptane-2-carboxylic acid]: the IC50 on hEP2 and on hEP4 was above 10000 nM throughout.

For `COc1cc(-c2ccc(Cc3c(C)sc(C)c3C(=O)NC3CC4(C3)CC(C(=O)O)C4)cc2)ccn1` (centres unmarked) [Example 50, 6-(4-(4-(2-methoxypyridin-4-yl)benzyl)-2,5-dimethylthiophene-3-carboxamido)spiro[3.3]heptane-2-carboxylic acid], the IC50 on hEP2 was above 10000 nM; on hEP4, below 500 nM.

For `COc1cc(-c2ccc(Cc3c(C)sc(C)c3C(=O)NC3CC4(C3)CC(C(=O)O)C4)cc2)cc(C(F)(F)F)c1` (centres unmarked) [Example 51, 6-(4-((3′-methoxy-5′-(trifluoromethyl)-[1,1′-biphenyl]-4-yl)methyl)-2,5-dimethylthiophene-3-carboxamido)spiro[3.3]heptane-2-carboxylic acid], the 50% inhibitory concentration (IC50) on hEP2 is 500 to 5000 nM; at hEP4, below 500 nM.

Consider `Cc1sc(C)c(C(=O)NC2CC3(C2)CC(C(=O)O)C3)c1Cc1ccc(-c2cc(F)cc(F)c2)cc1` (centres unmarked) [Example 52, 6-(4-((3′,5′-difluoro-[1,1′-biphenyl]-4-yl)methyl)-2,5-dimethylthiophene-3-carboxamido)spiro[3.3]heptane-2-carboxylic acid], for which the IC50 on hEP2 was 5000 to 10000 nM; at hEP4, below 500 nM.

Turning to `COc1cc(OC)cc(-c2ccc(Cc3c(C)sc(C)c3C(=O)NC3CC4(C3)CC(C(=O)O)C4)cc2)c1` (centres unmarked) [Example 53, 6-(4-((3′,5′-dimethoxy-[1,1′-biphenyl]-4-yl)methyl)-2,5-dimethylthiophene-3-carboxamido)spiro[3.3]heptane-2-carboxylic acid], the figures for the half-inhibitory concentration (IC50) at hEP2 and on hEP4 were 500 to 5000 nM and below 500 nM, respectively.

For the compound `Cc1sc(C)c(C(=O)NC2CC3(C2)CC(C(=O)O)C3)c1Cc1ccc(-c2cc(N)cc(F)c2)cc1` (centres unmarked) [Example 54, 6-(4-((3′-amino-5′-fluoro-[1,1′-biphenyl]-4-yl)methyl)-2,5-dimethylthiophene-3-carboxamido)spiro[3.3]heptane-2-carboxylic acid], the 50% inhibitory concentration (IC50) on hEP2 was 500 to 5000 nM; at hEP4, below 500 nM.

Turning to `CSc1cc(F)cc(-c2ccc(Cc3c(C)sc(C)c3C(=O)NC3CC4(C3)CC(C(=O)O)C4)cc2)c1` (centres unmarked) [Example 55, 6-(4-((3′-fluoro-5′-(methylthio)-[1,1′-biphenyl]-4-yl)methyl)-2,5-dimethylthiophene-3-carboxamido)spiro[3.3]heptane-2-carboxylic acid], the IC50 at hEP2 is 500 to 5000 nM; on hEP4 it was below 500 nM.

One may read the IC50 as the concentration that gives 50% inhibition.
